Test results reported in patent US20260306491A1, “EGFR INHIBITOR FOR TREATING CANCERS COMPRISING ATYPICAL EGFR MUTATIONS” (ORIC Pharmaceuticals, Inc., priority 2023, published 2026).

Experiment: Biodistribution in plasma and brain after single oral dose in female CB17 SCID mice
Format: in vivo
Conditions: mouse
Procedure: Female non-tumor bearing Fox Chase CB17 SCID mice were orally administered a single dose as specified in Table B1.
Brain tissues were excised and plasma was collected from all the animals receiving Compound I, or tucatinib at 1 hour, 4 hours, and 8 hours post-administration. Tucatinib was used as a reference agent. Tucatinib is a clinically approved therapy for HER2 positive breast cancer patients with brain metastases. The harvested brains were rinsed in ice-cold phosphate-buffered saline and weighed. All plasma and brain samples were stored at approximately −80° C. until thawed for LC-MS/MS analysis.
Prior to analysis, brain tissues were homogenized 1:5 with phosphate buffer. Average free brain-to-free plasma ratio (Kp,uu) was calculated from individual mice by using total concentration values determined in the brain and plasma at individual time points, or by calculating the area under the curve (AUC) and converting the values to free concentration (or AUC) with in vitro binding parameters determined in the brain (fu,b) and plasma (fu,p) as follows:
Kp,uu=Brain Concentration (or AUC)*fu,b/Plasma Concentration (or AUC)*fu,p.
Free fraction in the brain (fu,b) and in plasma (fu,p) was determined with equilibrium dialysis as follows: The brain tissue homogenate or plasma from the mice were spiked to yield a final concentration of 1 μM Compound I, or 5 μM tucatinib. Compound I and tucatinib were incubated in equilibrium dialysis plate on a shaking incubator at 37° C. with 5% CO2 at 450 rpm for 8 hours and 24 hours, respectively. Following the incubation, aliquots of the matrix and the buffer samples were sampled and the concentration of Compound I, or tucatinib were determined.
where fu,b,d is fraction unbound determined with 20% brain homogenate.

C=CC(=O)Nc1cc(Nc2cc(N3OCC[C@@H]3c3cc(F)cc(F)c3)ncn2)c(OC)cc1N1CCC(N2CCN(C3CC3)CC2)CC1 [Compound I, N-[2-[4-(4-cyclopropyl-1-piperazinyl)-1-piperidinyl]-5-[[6-[(3R)-3-(3,5-difluorophenyl)-2-isoxazolidinyl]-4-pyrimidinyl]amino]-4-methoxyphenyl]-2-propenamide]
Bioavailability profile in plasma and brain (oral 3 mg/kg): excellent bioavailability profile
Unbound brain concentration (oral 3 mg/kg, 8 h): below the limit of quantitation (BLOQ)
Unbound brain concentration compared to tucatinib (oral, 1 h and 4 h, 3 mg/kg Compound I vs 50 mg/kg tucatinib): much higher unbound brain concentration
Unbound plasma concentration relative to tucatinib (oral, 8 h, 3 mg/kg Compound I vs 50 mg/kg tucatinib): about 15 fold
Total area under the curve (AUC) higher than that of tucatinib (oral, first eight hours, 3 mg/kg Compound I vs 50 mg/kg tucatinib, brain context): about 800%
Blood-brain barrier penetration compared to tucatinib (oral, 3 mg/kg Compound I vs 50 mg/kg tucatinib): superior ability of Compound I to penetrate the blood-brain barrier as compared to tucatinib
